# From patent US12660819B2, “Herbicidal derivatives” (SYNGENTA CROP PROTECTION AG, priority 2020, dated 2026)
# Experiments:
# Type in all cases: in vivo
# [1] = test system: Amaranthus palmeri (AMAPA); experiment: Post-emergence Test (glasshouse, percentage damage to the plant); settings: post-emergence; 1000 g/ha unless otherwise stated; evaluated after 13 days
# Summary of the method: (§1)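 Compound formulated in 50:50 acetone/water with 0.5% Tween 20 was diluted to an aqueous spray and applied at 1000 g/ha, unless otherwise stated, onto sown pots. Evaluation after 13 days gave percentage damage, banded into a 1–5 score.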
# [2] = test system: Amaranthus retoflexus (AMARE); experiment: as above; settings: post-emergence; 1000 g/ha unless otherwise stated; evaluated after 13 days
# Summary of the method: as §1
# [3] = test system: Ipomoea hederacea (IPOHE); experiment: as above; settings: post-emergence; 1000 g/ha unless otherwise stated; evaluated after 13 days
# Summary of the method: (§2)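 Damage was rated 13 days after treatment and expressed on a five-point scale: 5=81-100%, 4=61-80%, 3=41-60%, 2=21-40%, 1=0-20%. Spray was applied at 1000 g/ha unless otherwise stated, from acetone/water (50:50) with 0.5% Tween 20, to sown pots.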
# [4] = test system: Setaria faberi (SETFA); experiment: as above; settings: post-emergence; 1000 g/ha unless otherwise stated; evaluated after 13 days
# Summary of the method: as §2
# [5] = test system: Zea mays (ZEAMX); experiment: as above; settings: post-emergence; 1000 g/ha unless otherwise stated; evaluated after 13 days
# Summary of the method: as §2
# [6] = test system: Amaranthus retoflexus (AMARE); experiment: Pre-emergence Test (glasshouse, percentage damage to the plant); settings: 1000 g/ha unless otherwise stated, Amaranthus retoflexus
# [7] = test system: Setaria faberi (SETFA); experiment: as above; settings: 1000 g/ha unless otherwise stated, Setaria faberi
# [8] = test system: Echinochloa crus-galli (ECHCG); experiment: as above; settings: 1000 g/ha unless otherwise stated, Echinochloa crus-galli
# [9] = test system: Ipomoea hederacea (IPOHE); experiment: as above; settings: 1000 g/ha unless otherwise stated, Ipomoea hederacea
# [10] = test system: Zea mays (ZEAMX); experiment: as above; settings: 1000 g/ha unless otherwise stated, Zea mays
# [11] = test system: Amaranthus palmeri (AMAPA); experiment: as above; settings: 1000 g/ha unless otherwise stated, Amaranthus palmeri
Structure (SMILES),"AMAPA, percentage damage caused to the plant (five-point scale) [1]","AMARE, percentage damage caused to the plant (five-point scale) [2]","IPOHE, percentage damage caused to the plant (five-point scale) [3]","SETFA, percentage damage caused to the plant (five-point scale) [4]","ZEAMX, percentage damage caused to the plant (five-point scale) [5]","percentage damage to the plant, AMARE (five-point scale) [6]","percentage damage to the plant, SETFA (five-point scale) [7]","percentage damage to the plant, ECHCG (five-point scale) [8]","percentage damage to the plant, IPOHE (five-point scale) [9]","percentage damage to the plant, ZEAMX (five-point scale) [10]","percentage damage to the plant, AMAPA (five-point scale) [11]"
"CCn1c(C)c(-c2ccc(F)c(OC)c2F)c(=O)c(C(=O)O)c1-c1ccc(Cl)c(Cl)c1 [Compound 234, 2-(3,4-dichlorophenyl)-5-(2,4-difluoro-3-methoxy-phenyl)-1-ethyl-6-methyl-4-oxo-pyridine-3-carboxylic acid]",5 (5=81-100%),4 (4=61-80%),4 (4=61-80%),4 (4=61-80%),3 (3=41-60%),2 (2=21-40%),5 (5=81-100%),5 (5=81-100%),4 (4=61-80%),2 (2=21-40%),3 (3=41-60%)
"CCn1c(C)c(-c2cc(F)ccc2OC)c(=O)c(C(=O)O)c1-c1ccc(Cl)c(Cl)c1 [Compound 235, 2-(3,4-dichlorophenyl)-1-ethyl-5-(5-fluoro-2-methoxy-phenyl)-6-methyl-4-oxo-pyridine-3-carboxylic acid]",4 (4=61-80%),3 (3=41-60%),3 (3=41-60%),2 (2=21-40%),1 (1=0-20%),0,0,0,0,0,3 (3=41-60%)
"CCn1c(C)c(-c2ccc(C)cc2F)c(=O)c(C(=O)O)c1-c1ccc(Cl)c(Cl)c1 [Compound 236, 2-(3,4-dichlorophenyl)-1-ethyl-5-(2-fluoro-4-methyl-phenyl)-6-methyl-4-oxo-pyridine-3-carboxylic acid]",5 (5=81-100%),5 (5=81-100%),5 (5=81-100%),2 (2=21-40%),2 (2=21-40%),1 (1=0-20%),4 (4=61-80%),3 (3=41-60%),4 (4=61-80%),1 (1=0-20%),2 (2=21-40%)
"CCN(CC)S(=O)(=O)c1ccc(-c2c(C)n(CC)c(-c3ccc(Cl)c(Cl)c3)c(C(=O)O)c2=O)cc1 [Compound 237, 2-(3,4-dichlorophenyl)-5-[4-(diethylsulfamoyl)phenyl]-1-ethyl-6-methyl-4-oxo-pyridine-3-carboxylic acid]",4 (4=61-80%),1 (1=0-20%),2 (2=21-40%),3 (3=41-60%),1 (1=0-20%),0,1 (1=0-20%),2 (2=21-40%),0,0,1 (1=0-20%)
"CCn1c(C)c(-c2cccc(Oc3ccccc3)c2)c(=O)c(C(=O)O)c1-c1ccc(Cl)c(Cl)c1 [Compound 238, 2-(3,4-dichlorophenyl)-1-ethyl-6-methyl-4-oxo-5-(3-phenoxyphenyl) pyridine-3-carboxylic acid]",4 (4=61-80%),3 (3=41-60%),1 (1=0-20%),1 (1=0-20%),1 (1=0-20%),0,0,0,0,0,0
"CCn1c(C)c(-c2ccc(S(C)(=O)=O)cc2F)c(=O)c(C(=O)O)c1-c1ccc(Cl)c(Cl)c1 [Compound 239, 2-(3,4-dichlorophenyl)-1-ethyl-5-(2-fluoro-4-methylsulfonyl-phenyl)-6-methyl-4-oxo-pyridine-3-carboxylic acid]",3 (3=41-60%),4 (4=61-80%),2 (2=21-40%),4 (4=61-80%),2 (2=21-40%),1 (1=0-20%),5 (5=81-100%),5 (5=81-100%),1 (1=0-20%),0,1 (1=0-20%)
"CCn1c(C)c(-c2cc(C)nn2C)c(=O)c(C(=O)O)c1-c1ccc(Cl)c(Cl)c1 [Compound 240, 2-(3,4-dichlorophenyl)-5-(2,5-dimethylpyrazol-3-yl)-1-ethyl-6-methyl-4-oxo-pyridine-3-carboxylic acid]",4 (4=61-80%),3 (3=41-60%),4 (4=61-80%),4 (4=61-80%),1 (1=0-20%),0,5 (5=81-100%),3 (3=41-60%),1 (1=0-20%),0,0
"CCn1c(C)c(-c2ccnn2C)c(=O)c(C(=O)O)c1-c1ccc(Cl)c(Cl)c1 [Compound 241, 2-(3,4-dichlorophenyl)-1-ethyl-6-methyl-5-(2-methylpyrazol-3-yl)-4-oxo-pyridine-3-carboxylic acid]",5 (5=81-100%),5 (5=81-100%),3 (3=41-60%),4 (4=61-80%),3 (3=41-60%),3 (3=41-60%),5 (5=81-100%),5 (5=81-100%),3 (3=41-60%),1 (1=0-20%),2 (2=21-40%)
